# Read-outs that look alike come from different tables or passages of the source.
# Legend:
# [1] = tested on: NSCLC-N6-L16 cells synchronised in M phase; assay: Gene expression by quantitative real-time RT-PCR in cells synchronised in M phase; type: cell-based, human
# Description: (§1) During the mitosis, cell shape and adhesion are radically changed. Indeed, this phase induces a depolymerization of the microtubules, a loss of the cytoskeleton and consequently a decrease of the adhesion to the support. […] It is thus easy to isolate these cells by a slight agitation of the culture medium in order to remove and suspend the cells. The cells are then recovered by slow centrifugation and replaced in a new culture flask.
# (§2) Total RNA was extracted from NSCLC-N6-L16 and A549 cell lines using the Dynabeads® mRNA DirectTM Kit (Ambion by Life Technologies). The isolation protocol relies on base pairing between the polyA residues at the 3' end of most mRNA and the oligo (dT) residues covalently coupled to the surface of the Dynabeads®. The quality and concentration of purified RNA were assessed using UV absorbance at 260/280 nm and samples were run on 1% agarose gel in order to assess their quality. RNA was stored at - 80 °C.
# RT was carried out with 1 µg of RNA in 10 µL with 0.125 µg/µL random primers and RNase-free water. This mixture was denatured at 65°C for 10 min then kept on ice. Subsequently, it was completed to a final volume of 25 µL with a mix containing 8 mM of dNTP mix, 1X of M- MLV 5X reaction buffer, 25 units of recombinant RNasin ribonuclease inhibitor (Promega), and 200 units of M-MLV RT (Promega) and RNase-free water. In order to check whether the samples were contaminated by genomic DNA, the same mix was made with RNA without the reverse transcriptase. Following this step, samples were incubated for 2 h at 37°C. cDNAs were stored at -20°C. After reverse transcription, cDNAs were used as a template for specific qPCR.
# Real-time RT-PCR was carried out in a final volume of 25 µL with 1µL 1:20 dilution of diluted cDNA mixture, 10 pmol gene-specific forward and 10 pmol reverse primer in 1X SYBR Green PCR master mix (Eurogentec) with the following protocol: 15 s at 95 °C for denaturation, 30 s at 60°C for annealing and extension on a ABI Prism Sequence Detection System 5700 (Applied Biosystems). The primers were designed using Primer 3 (http://frodo.wi.mit.edu/). All primer sequences were controlled with a dimers finder to reduce the risk of unspecific hybridization of Sybr-green (Operon oligo toolkit: see https://www.operon.com(oligos/toolkit.php).
# The relative expression of each gene was normalized to that of human β-actin: forward 5'-[…]-3' (SEQ ID NO: 13), reverse 5'-[…]-3' (SEQ ID NO: 14) (10 mM, Sigma Genosys). Normalization was carried out using the ΔΔCt method. Non-template control sample was used for each PCR to check the genomic DNA contaminations of the cDNA template. Analysis of the results was carried out using GenAmp 5700 SDS (Applied Biosystems) software.
# The expression of four genes of interests were studied in the cell line NSCLC-N6-L16: HEF1, p53, C3G and FAK. It was carried out by RT-QPCR on the synchronized cells not treated (dark histograms) or treated (grey histograms) by A240 at the IC50. The study was performed between 10 and 17 hours in order to follow the gene expression with an extraction every hour.
# [2] = tested on: A549 cells synchronised in M phase; assay: as above; type: cell-based; conditions: A549, at 17 hours; treated at the IC50 (figure legend: 39.4µM)
# Description: as §1, §2
# RT was carried out with 1 µg of RNA in 10 µL with 0.125 µg/µL random primers and RNase-free water. This mixture was denatured at 65°C for 10 min then kept on ice. Subsequently, it was completed to a final volume of 25 µL with a mix containing 8 mM of dNTP mix, 1X of M- MLV 5X reaction buffer, 25 units of recombinant RNasin ribonuclease inhibitor (Promega), and 200 units of M-MLV RT (Promega) and RNase-free water. […]
# NSCLC-N6-L16 [3] = assay: Cytotoxicity determination, continuous drug exposure (MTT colorimetric assay); type: cell-based; conditions: Homo sapiens, read-out: IC50: Half maximal inhibitory concentration
# Protocol: (§3) A549 and NSCLC-N6 cell lines were used for all experiments. They were obtained respectively from an adenocarcinoma and an epidermoid lung cancer. The NSCLC-N6-L16 cell line was derived from a human non-small-cell bronchopulmonary carcinoma (moderately differentiated, classified as T2N0M0). The A549 was obtained from the ATCC collection (reference CCL-185) and is known to have a wild type p53 gene, while NSCLC-N6 has a mutant p53 gene, similar to the in situ tumors.
# (§4) Both cell lines were cultured in RPMI-1640 medium with 5% fetal bovine serum, to which were added 100 IU penicillin/ml, 100 µg/mL streptomycin and 2 mM glutamine at 37°C in an air/carbon dioxide (95:5, v/v) atmosphere. The NSCLC-N6-L16 cell line is a model which never exceeded 35 passages in all experiments. Then this model stays very close to the original tumor.
# (§5) Experiments were performed in 96-well microtiter plates (10^5 cells/mL for NSCLC-N6-L16 and 2X10^4 cells/mL for A549). Cell growth was estimated by a colorimetric assay based on the conservation of tetrazolium dye (MTT) to a blue formazan product by live mitochondria. Eight repeats were performed for each concentration. Control growth was estimated from 8 determinations. Optical density at 570 nm corresponding to solubilized formazan was read for each well on a Titertek Multiskan MKII.
# A549 [4] = assay: as above; type: cell-based; conditions: for IC50: Homo sapiens, A549 cell line, MTT, read-out: IC50: Half maximal inhibitory concentration
# Protocol: as §3, §4, §5
# NSCLC-N6-L16 [5] = assay: Continuous drug exposure growth kinetics over 72 h; type: cell-based, human; conditions: for "plateau" of cytostatic type, time of treatment after which it is visible: NSCLC-N6-L16, highest doses, A190: 104.9 µM, 78.9 µM, A204: 8.4 µM, 5.6 µM
# Protocol: as §5
# (§6) The kinetics were carried out on the two cell lines NSCLC-N6-L16 and A549 over a time of 72 h. The results are presented in the graphs of figures 1 to 4 representing the cell growth as a function of time. One of the curves represents the cell growth control; the others correspond to the different concentrations tested. The latter are chosen according to the IC50 in order to surround it at best (Table 3).
# A549 [6] = assay: Continuous drug exposure growth kinetics over 72 h; type: cell-based; conditions: for cell growth (proliferation) versus time: A549, 72 h kinetics
# Protocol: as §5, §6
# synchronized cells = assay: Activity kinetics on synchronized cells (data not shown); type: cell-based
# Description: as §1
# It was observed that the cell doubling time of the cell line NSCLC-N6-L16 is about 17 hours and 22-23 hours for A549. Indeed, the molecule A204 act on different genes such as HEF1, the expression of which is variable along the cell cycle.
# mutant p53, NEDD9 gene = conditions: Rousseau et al., Sci. Rep. 5, 10556, 2015; cited from earlier work
# [7] = tested on: A549 cells synchronised in M phase; conditions: after 17 hours of treatment, previous work; cited from earlier work
smiles,measurement,setting,value
"NC1=NC(C23CC4CC(CC(C4)C2)C3)N(Cc2ccc(Cl)cc2)C(N)=N1 (centres unmarked) [A204, 4,6-diamino-1,2-dihydro-1-(4""-chlorobenzyl)-2-(1-tricyclo [3.3.1.1,4]decyl)-1,3,5-triazine]",expression of gene P53,"[1]; 10 to 17 hours, treated vs control",clearly shows an influence of the treatment on the expression
same,time of action compared with A190,"[1]; NSCLC-N6-L16, same cytostatic effect, relative to A190",three hours earlier
same,expression of gene C3G,[1]; at 17 hours (G2 / M phase),collapse
same,expression of gene HEF1,"[1]; at around 12 hours, treated at the IC50 (figure legend: 39.4µM) vs control",highly overexpressed
same,expression of gene C3G,[1]; between 11 and 13 hours (end of G1 phase),widely overexpressed
same,expression of gene FAK,[1]; between 12 and 16 hours (phase of synthesis),decreased expression
same,expression of gene HEF1,[1]; between 13 and 15 hours,collapses
same,expression of gene C3G,[1]; between 13 and 16h,goes up gradually
same,expression of gene HEF1,[1]; between 15 and 17 hours (G2 / M phase),relatively close to the level of the control cells
same,expression of gene AKT,[2],overexpression
same,expression of gene PI3K,[2],overexpression
same,IC50,NSCLC-N6-L16 [3],5.01 ± 0.5 µM
same,IC50 / amount required compared with A190,"A549 [4]; A549, relative to A190",seven times less
same,IC50,A549 [4],9.7 ± 0.7 µM
same,"""plateau"" of cytostatic type, time of treatment after which it is visible",NSCLC-N6-L16 [5],> 48 h
same,cell growth (proliferation) versus time,A549 [6],follow perfectly that of the control cells
same,time at which the effect of the treatment is beginning,synchronized cells,around 30 hours
NC1=NC(C23CC4CC(CC(C4)C2)C3)N(c2ccc(Cl)cc2)C(N)=N1 (centres unmarked) [A190],IC50,NSCLC-N6-L16 [3],24.1 ± 2.2 µM
same,IC50,A549 [4],71 ± 1.2 µM
same,cell growth (proliferation) versus time,"NSCLC-N6-L16 [5]; NSCLC-N6-L16, 72 h kinetics",reduced for both cell lines in a dose-dependent manner
same,cytostatic activity since (concentration),"NSCLC-N6-L16 [5]; NSCLC-N6-L16, continuous exposure",≥ 26.3 µM
same,"""plateau"" of cytostatic type, time of treatment after which it is visible",NSCLC-N6-L16 [5],> 48 h
same,expression of the NEDD9 gene,"mutant p53, NEDD9 gene",overexpression
same,mutant p53 activity,"mutant p53, NEDD9 gene",restores mutant p53 activity
same,cell growth (proliferation) versus time,A549 [6],reduced for both cell lines in a dose-dependent manner
same,cytostatic activity since (concentration),"A549 [6]; A549, continuous exposure",≥ 26.3 µM
same,"plateau of cytostatic type, time of treatment after which it is visible","A549 [6]; A549, A190 at 104.9, 78.9, 52.6, 26 µM",> 48 h
same,expression of gene AKT,[7],overexpression
same,expression of gene PI3K,[7],overexpression

# Source: patent EP3381909A1, “NEW TRIAZINE SUBSTANCE FOR USE IN THE TREATMENT OF CANCER, SPECIFICALLY IN THE TREATMENT OF NON-SMALL CELL CANCER, AND PHARMACEUTICAL COMPOSITION COMPRISING SAID SUBSTANCE” (Universite de Nantes, priority 2017, dated 2018)
